# In the OPERA property sets (Mansouri et al. 2018):
row,SMILES,logP
1,CNC(=O)ON=C1SC(C)OC1C (centres undefined),0.96
2,CNC(=O)ON=C1COCS1,0.06
3,CNC(=O)ON=C1SCOC1CCOC (centres undefined),0.51
4,CNC(=O)ON=C1SCOC1C (centres undefined),0.46
5,CNC(=O)ON=C1CSCS1,0.51
6,CNC(=O)ON=C1SCOC1C(C)C (centres undefined),1.48
7,CNC(=O)ON=C1SCSC1(C)C,1.31
8,CCCC1OCSC1=NOC(=O)NC (centres undefined),1.52
9,CNC(=O)ON=C1COCCS1,0
10,CNC(=O)ON=C1CSC(C)(C)S1,1.33
11,CNC(=O)ON=C1SCCSC1(C)C,1.51
12,CNC(=O)ON=C1SCOC1(C)C,0.82
13,CNC(=O)ON=C1CSCCS1,0.49
14,CNC(=O)ON=C1SCSC1C (centres undefined),0.91
